In article PMC9668832, “Increased slow dynamics defines ligandability of BTB domains” (Nature Communications, 2022):

The compounds below were run against T1, MIZ1^BTB (Homo sapiens, UniProt Q13105) (assay: 1H-15N HSQC NMR titration).
T1 construct: gene ZBTB17; BTB domain, residues 1-115; N-terminal Trx-His6 tag cleaved with PreScission; E. coli BL21(DE3); 13C,15N-labelled; homodimer in solution
T1 sequence (Q13105 1-115): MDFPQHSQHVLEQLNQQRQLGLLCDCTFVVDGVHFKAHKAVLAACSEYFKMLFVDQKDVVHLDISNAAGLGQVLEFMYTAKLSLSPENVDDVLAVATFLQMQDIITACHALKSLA
Assay type: binding

Kd [µM] | SMILES
68 ± 9 | Nc1ccc(-n2cnc(Cl)c2Cl)cc1 [2GG4]
425 ± 59 | OC1(c2ccc(Cl)c(C(F)(F)F)c2)CCNCC1 [4CC2]
870 ± 140 | Cc1nc2ccc(Cl)cc2nc1C [5DD7]
